From patent US20170150719A1, “FUNGICIDAL PYRAZOLES AND THEIR MIXTURES” (E I DU PONT DE NEMOURS AND COMPANY, priority 2010, published 2017)

Assays:
Septoria tritici = test: Test F: wheat leaf blotch, preventive spray on wheat seedlings, visual disease rating; format: in vivo; settings: 100 = 100% disease control; for Test F rating (% disease control): preventive spray, rating without asterisk; for Test F rating (disease control): 0 = no disease control relative to the controls
Text: (§1) A hyphen (-) indicates no test results.

[1] = test system: Puccinia recondita f. sp. tritici; test: Test G: wheat leaf rust, spray after inoculation (curative) on wheat seedlings, visual disease rating; format: in vivo; settings: 100 = 100% disease control; for Test G rating (% disease control): spray after inoculation, rating without asterisk; for Test G rating (disease control): sprayed after inoculation, 0 = no disease control
Text: as §1

[2] = test system: Puccinia recondita f. sp. tritici; test: Test H: wheat leaf rust, preventive spray on wheat seedlings, visual disease rating; settings: wheat leaf rust, 100 = 100% disease control; for Test H rating (% disease control): preventive spray, rating without asterisk; for Test H rating (disease control): sprayed the day before inoculation, 0 = no disease control
Botrytis cinerea = test: Test A: tomato Botrytis, preventive spray on tomato seedlings, visual disease rating; settings: tomato Botrytis, 100 = 100% disease control; for Test A rating (% disease control): preventive spray, 0 = no control relative to controls, rating without asterisk; for Test A rating (disease control): 0 = no disease control relative to the controls
Alternaria solani = test: Test B: tomato early blight, preventive spray on tomato seedlings, visual disease rating; settings: tomato early blight, 100 = 100% disease control; for Test B rating (% disease control): preventive spray, rating without asterisk; for Test B rating (disease control): 0 = no disease control relative to the controls
[3] = test system: Blumeria graminis f. sp. tritici; test: Test I: wheat powdery mildew, preventive spray on wheat seedlings, visual disease rating; settings: wheat powdery mildew, 100 = 100% disease control; for Test I rating (% disease control): preventive spray, rating without asterisk; for Test I rating (disease control): 0 = no disease control relative to the controls
Septoria nodorum = test: Test E: Septoria glume blotch, preventive spray on wheat seedlings, visual disease rating; settings: 100 = 100% disease control; for Test E rating (% disease control): Septoria glume blotch on wheat, preventive spray, rating without asterisk; for Test E rating (disease control): Septoria glume blotch, 0 = no disease control relative to the controls

`CCOc1ccc(-c2c(C)nn(C)c2Nc2c(F)cc(F)cc2Cl)c(Cl)c1` [compound 206] was tested. Which “Test F rating (% disease control)” value (Septoria tritici) did it give?
The value was 100%.

What about the “Test G rating (% disease control)” value [1] of the same compound?
Its value is 0%.

And the “Test H rating (% disease control)” value [2]?
Its value is 99%.

And the “Test A rating (% disease control)” value (Botrytis cinerea)?
Its value is 99%.

And the “Test B rating (% disease control)” value (Alternaria solani)?
Its value is 100%.

And the “Test I rating (% disease control)” value [3]?
Its value is 100%.

What about the “Test E rating (% disease control)” value (Septoria nodorum) of the same compound?
Its value is 99%.

`Cc1nn(C)c(Nc2ccc(F)cc2I)c1-c1ccc(F)cc1F` [compound 175] was tested. Which “Test F rating (disease control)” value (Septoria tritici) did it give?
Its value is 100%.

And the “Test G rating (disease control)” value [1]?
The value was 41%.

And the “Test H rating (disease control)” value [2]?
Its value is 100%.

And the “Test A rating (disease control)” value (Botrytis cinerea)?
Its value is 100%.

And the “Test B rating (disease control)” value (Alternaria solani)?
The value was 97%.

And the “Test I rating (disease control)” value [3]?
Its value is 100%.

And the “Test E rating (disease control)” value (Septoria nodorum)?
The value was 73%.

For `Cc1nn(C)c(Nc2c(F)cc(F)cc2Br)c1-c1ccc(Cl)cc1F` [compound 229], which “Test F rating (% disease control)” value (Septoria tritici) is on record?
Its value is 100%.

And the “Test G rating (% disease control)” value [1]?
The value was 9%.

And the “Test H rating (% disease control)” value [2]?
Its value is 97%.

And the “Test A rating (% disease control)” value (Botrytis cinerea)?
Its value is 99%.

And the “Test B rating (% disease control)” value (Alternaria solani)?
Its value is 99%.

And the “Test I rating (% disease control)” value [3]?
The value was 98%.

And the “Test E rating (% disease control)” value (Septoria nodorum)?
Its value is 64%.

How did the “Test F rating (% disease control)” value (Septoria tritici) turn out when `Cc1nn(C)c(Nc2c(F)cc(F)cc2I)c1-c1ccc(F)cc1F` [compound 214] was run?
The value was 100%.

And the “Test G rating (% disease control)” value [1]?
The value was 99%.

And the “Test H rating (% disease control)” value [2]?
The value was 99%.

What about the “Test A rating (% disease control)” value (Botrytis cinerea) of the same compound?
The value was 100%.

What about the “Test B rating (% disease control)” value (Alternaria solani) of the same compound?
The value was 100%.

And the “Test I rating (% disease control)” value [3]?
Its value is 100%.

And the “Test E rating (% disease control)” value (Septoria nodorum)?
Its value is 99%.

How did the “Test F rating (disease control)” value (Septoria tritici) turn out when `Cc1nn(C)c(Oc2c(F)cc(C#N)cc2F)c1-c1ccccc1Cl` [compound 75] was run?
The value was 100%.

And the “Test G rating (disease control)” value [1]?
Its value is 0%.

What about the “Test H rating (disease control)” value [2] of the same compound?
The value was 99%.

And the “Test A rating (disease control)” value (Botrytis cinerea)?
The value was 100%.

What about the “Test B rating (disease control)” value (Alternaria solani) of the same compound?
The value was 99%.

What about the “Test I rating (disease control)” value [3] of the same compound?
Its value is 98%.

And the “Test E rating (disease control)” value (Septoria nodorum)?
The value was 99%.

For `CCOc1ccc(Nc2c(-c3ccc(F)cc3Cl)c(C)nn2C)c(Cl)c1` [compound 104], which “Test F rating (disease control)” value (Septoria tritici) is on record?
Its value is 100%.

What about the “Test G rating (disease control)” value [1] of the same compound?
Its value is 0%.

What about the “Test H rating (disease control)” value [2] of the same compound?
The value was 97%.

And the “Test A rating (disease control)” value (Botrytis cinerea)?
Its value is 100%.

What about the “Test B rating (disease control)” value (Alternaria solani) of the same compound?
Its value is 0%.

And the “Test I rating (disease control)” value [3]?
The value was 99%.

What about the “Test E rating (disease control)” value (Septoria nodorum) of the same compound?
Its value is 0%.

Which results are given for `Cc1nn(C)c(Nc2ccc(F)cc2Cl)c1-c1ccc(C#N)cc1Cl` [compound 112]?
Test F rating (disease control) (Septoria tritici): 100%; Test G rating (disease control) [1]: 8%; Test H rating (disease control) [2]: 100%; Test A rating (disease control) (Botrytis cinerea): 100%; Test B rating (disease control) (Alternaria solani): 37%; Test I rating (disease control) [3]: 99%; Test E rating (disease control) (Septoria nodorum): 40%

Which results are given for `COc1cc(F)c(Nc2c(-c3ccc(F)cc3F)c(C)nn2C)c(F)c1` [compound 12]?
Test F rating (disease control) (Septoria tritici): 93%; Test G rating (disease control) [1]: 0%; Test H rating (disease control) [2]: 94%; Test A rating (disease control) (Botrytis cinerea): 100%; Test B rating (disease control) (Alternaria solani): 0%; Test I rating (disease control) [3]: 82%; Test E rating (disease control) (Septoria nodorum): 0%

With `Cc1nn(C)c(Oc2ccc(Cl)cc2Cl)c1-c1c(F)cc(F)cc1F` [compound 9] as the compound, how does the “Test F rating (disease control)” value (Septoria tritici) read?
Its value is 97%.

And the “Test G rating (disease control)” value [1]?
The value was 0%.

And the “Test H rating (disease control)” value [2]?
Its value is 99%.

What about the “Test A rating (disease control)” value (Botrytis cinerea) of the same compound?
The value was 99%.

And the “Test B rating (disease control)” value (Alternaria solani)?
The value was 9%.

What about the “Test I rating (disease control)” value [3] of the same compound?
The value was 99%.

And the “Test E rating (disease control)” value (Septoria nodorum)?
The value was 0%.

`Cc1nn(C)c(Nc2ccc(F)cc2F)c1-c1ccc(F)cc1F` [compound 64] was tested. Which “Test F rating (disease control)” value (Septoria tritici) did it give?
The value was 100%.

And the “Test G rating (disease control)” value [1]?
Its value is 0%.

What about the “Test H rating (disease control)” value [2] of the same compound?
Its value is 97%.

And the “Test A rating (disease control)” value (Botrytis cinerea)?
Its value is 99%.

What about the “Test B rating (disease control)” value (Alternaria solani) of the same compound?
The value was 99%.

What about the “Test I rating (disease control)” value [3] of the same compound?
The value was 100%.

What about the “Test E rating (disease control)” value (Septoria nodorum) of the same compound?
Its value is 0%.

With `Cc1nn(C)c(Nc2c(F)cc(Br)cc2Br)c1-c1ccc(F)cc1I` [compound 223] as the compound, how does the “Test F rating (% disease control)” value (Septoria tritici) read?
Its value is 100%.

What about the “Test G rating (% disease control)” value [1] of the same compound?
The value was 0%.

What about the “Test H rating (% disease control)” value [2] of the same compound?
The value was 97%.

And the “Test A rating (% disease control)” value (Botrytis cinerea)?
The value was 98%.

What about the “Test B rating (% disease control)” value (Alternaria solani) of the same compound?
Its value is 88%.

What about the “Test I rating (% disease control)” value [3] of the same compound?
The value was 99%.

And the “Test E rating (% disease control)” value (Septoria nodorum)?
Its value is 0%.
